# Reference: PubChem BioAssay AID2060908 (Molecular Pharmacology Branch, DTP, NCI, 2025)
# System: 186277-243-T-J2-PDC complex spheroids, viability
# Assay: Anticancer human tumor 186277-243-T-J2-PDC patient-derived colon adenocarcinoma cell line growth inhibition [RAS]
# Conditions: for IC50: curve of first compound; for viability, T/C: stronger effect = lower value
# Excerpt: RAS pathway inhibitors in Combinations in Complex Spheroids
# A high-throughput screen of multi-cell type tumor spheroids was designed to identify active combinations of RAS pathway inhibitors and targeted small molecules. Complex spheroids include a stromal component modeled by human endothelial cells (HUVEC) and fibroblasts modeled by human mesenchymal stem cells (MSCs). The concentration ranges selected for each drug and investigational agent were based upon clinically achievable concentrations if the clinical Cmax of the agent was known.
# Compounds. The drugs and investigational agents: abemaciclib (NSC768073), cobimetinib (NSC768068), divarasib (GDC6063, NSC841802), docetaxel (NSC628503), GDC-1971 (RLY-1971, NSC841576), gemcitabine (NSC613327), inavolisib (NSC800729), ipatasertib (NSC767898), KB-0742 (NSC834161), MRTX-1133 (NSC836407), osimertinib (NSC779217), RMC-4630 (NSC839698), RMC-6236 (NSC851965), RMC-6291 (NSC852671), Ro-3306 (NSC812927), sapanisertib (NSC764658), SN-38 (NSC673596), staurosporine (NSC755774), SY5609 (NSC837396), and tovorafenib (DAY101, NSC766906), were obtained from the National Cancer Institute (NCI) Developmental Therapeutics Program Chemical Repository. The FDA-approved anticancer drug set is available from the NCI Developmental Therapeutics Program. […] The stock solutions were prepared in dimethyl sulfoxide (DMSO, Sigma-Aldrich, St. Louis, MO, cat. D2650) at 800-fold the tested concentration and stored at -70 degrees C prior to their use. All drugs and investigational agents were tested over a range starting from a high concentration at or near the clinical Cmax and decreasing in half-log increments. If the clinical Cmax for an agent had not been determined, the highest concentration tested was 10 microM.
# Cell Culture. All cells were maintained in an incubator at 37 degrees C and 5% CO2 with 95% humidity. The PDC lines were cultured according to standard operating procedures established by the NCI PDMR. All PDCs were thawed and cultured in Matrigel-coated flasks prepared with a working solution of 1X Ham's F-12 nutrient mix, without supplementation (Invitrogen, Waltham, MA, cat. 11765054), 100 U/mL penicillin-streptomycin (Invitrogen, cat. 15140122), and 2.5% Matrigel (Corning Inc., Corning, NY, cat. 354248) for the first three passages. The 362531-283-R-J2-PDC and 782815-120-R-J1-PDC lines were cultured in 6C/Colon 1B media, which includes advanced DMEM/F-12 (Thermo Fisher Scientific, cat. 12634028), 10 mM HEPES (Thermo Fisher Scientific, cat. 15630080), 1X GlutaMAX supplement (Thermo Fisher Scientific, cat. 35050061), 0.1 mg/mL primocin (InvivoGen, San Diego, CA, cat. ant-pm-2), 10% defined fetal bovine serum, heat inactivated (HyClone Laboratories Inc., Logan, UT, cat. SH30070.03HI), 50% L-WRN conditioned media (ATCC, cat. CRL-3276), 1.25 mM N-Acetyl-L-cysteine (Sigma-Aldrich, cat. A9165), 10 mM nicotinamide (Sigma-Aldrich, cat. N0636), 1X B-27 supplement (Thermo Fisher Scientific, cat. 17504044), 1X N-2 supplement (Thermo Fisher Scientific, cat. 17502048), 50 ng/mL human EGF (Thermo Fisher Scientific, cat. PHG0311), and 10 microM Y-27632 dihydrochloride (Tocris Bioscience, cat. 1254). The K12877-001-R-J1-PDC line was cultured in 6I media, which includes all 6C/Colon 1B media plus 10 ng/mL human FGF-10 (PeproTech, cat. 100-26), 1 ng/mL human FGF-2 (PeproTech, cat. 100-18B), 1 µM prostaglandin E2 (Tocris Bioscience, cat. 2296), […] hydrocortisone (Sigma-Aldrich, cat. H4001), and […] bovine insulin (Sigma-Aldrich, cat. I6634). The K86415-001-R-J1-PDC line was cultured in 6D media, which includes all 6C/Colon 1B media components minus the L-WRN conditioned media. The 485176-168-R4-J1-PDC was cultured in PANC media, which includes all 6C/Colon 1B media plus 100 ng/mL human FGF-10 (PeproTech, cat. 100-26), 500 nM SB-431542 (Selleckchem, cat. S1067), and 10 nM gastrin (Tocris Bioscience, cat. 3006). […]
# 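Note: spheroids exposed to compounds for 7 days before viability read.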
smiles,measurement,setting,value
C[C@@H](NC(=O)c1ncnc(N)c1Cl)c1ncc(C(=O)Nc2cc(C(F)(F)F)c(Cl)cn2)s1 + C#Cc1c(F)ccc2cc(O)cc(-c3ncc4c(N5CC6CCC(C5)N6)nc(OCC56CCCN5CC(F)C6)nc4c3F)c12,IC50,second compound 0.0316 µM,9760 nM
same,IC50,second compound 0.1 µM,4170 nM
same,IC50,second compound 0.316 µM,< 31.6 nM
same,IC50,second compound 1 µM,< 31.6 nM
same,IC50,second compound 3.16 µM,< 31.6 nM
same,IC50,second compound 10 µM,< 31.6 nM
same,"viability, T/C","second compound 0.0316 µM, first compound 0.0316 µM",104%
same,"viability, T/C","second compound 0.0316 µM, first compound 0.1 µM",98.5%
same,"viability, T/C","second compound 0.0316 µM, first compound 0.316 µM",90.6%
same,"viability, T/C","second compound 0.0316 µM, first compound 1 µM",91.7%
same,"viability, T/C","second compound 0.0316 µM, first compound 3.16 µM",76.1%
same,"viability, T/C","second compound 0.0316 µM, first compound 10 µM",48.8%
same,"viability, T/C","second compound 0.1 µM, first compound 0.0316 µM",77.2%
same,"viability, T/C","second compound 0.1 µM, first compound 0.1 µM",69.5%
same,"viability, T/C","second compound 0.1 µM, first compound 0.316 µM",62.1%
same,"viability, T/C","second compound 0.1 µM, first compound 1 µM",61.3%
same,"viability, T/C","second compound 0.1 µM, first compound 3.16 µM",60.8%
same,"viability, T/C","second compound 0.1 µM, first compound 10 µM",26.7%
same,"viability, T/C","second compound 0.316 µM, first compound 0.0316 µM",36.3%
same,"viability, T/C","second compound 0.316 µM, first compound 0.1 µM",49.8%
same,"viability, T/C","second compound 0.316 µM, first compound 0.316 µM",38.5%
same,"viability, T/C","second compound 0.316 µM, first compound 1 µM",36%
same,"viability, T/C","second compound 0.316 µM, first compound 3.16 µM",23.7%
same,"viability, T/C","second compound 0.316 µM, first compound 10 µM",14.4%
same,"viability, T/C","second compound 1 µM, first compound 0.0316 µM",20.9%
same,"viability, T/C","second compound 1 µM, first compound 0.1 µM",23.9%
same,"viability, T/C","second compound 1 µM, first compound 0.316 µM",22.7%
same,"viability, T/C","second compound 1 µM, first compound 1 µM",22.3%
same,"viability, T/C","second compound 1 µM, first compound 3.16 µM",18.8%
same,"viability, T/C","second compound 1 µM, first compound 10 µM",11.1%
same,"viability, T/C","second compound 3.16 µM, first compound 0.0316 µM",15.4%
same,"viability, T/C","second compound 3.16 µM, first compound 0.1 µM",17.6%
same,"viability, T/C","second compound 3.16 µM, first compound 0.316 µM",15.1%
same,"viability, T/C","second compound 3.16 µM, first compound 1 µM",15.4%
same,"viability, T/C","second compound 3.16 µM, first compound 3.16 µM",10.9%
same,"viability, T/C","second compound 3.16 µM, first compound 10 µM",8.51%
same,"viability, T/C","second compound 10 µM, first compound 0.0316 µM",9.89%
same,"viability, T/C","second compound 10 µM, first compound 0.1 µM",10.8%
same,"viability, T/C","second compound 10 µM, first compound 0.316 µM",14%
same,"viability, T/C","second compound 10 µM, first compound 1 µM",12.8%
same,"viability, T/C","second compound 10 µM, first compound 3.16 µM",8%
same,"viability, T/C","second compound 10 µM, first compound 10 µM",8.5%
